Measurements taken from patent publication US20170274005A1, “TREATMENT OF RETINITIS PIGMENTOSA USING HYALURONIC ACID-CARBON NANOMATERIAL-PHOTOSENSITIZER COMPLEX” (POSTECH ACADEMY-INDUSTRY FOUNDATION, priority 2016, published 2017).

Legend:
[1] = system: retinal pigment epithelium cell; assay: MTT assay of retinal pigment epithelium cell treated using sodium iodate; format: cell-based; conditions: pre-treatment, then 5 mM sodium iodate, 24 hours, FIG. 5
[2] = Analysis of prevention of active oxygen using DPPH; conditions: aqueous solution, 0 to 100 μg/mL based on the amount of Ce6, FIG. 2

Substance: chlorine e6 [Ce6]
- viability of the pre-treated cell versus cell treated using sodium iodate only [1]: lower
- active oxygen suppression ability [2]: 60%
